Patent US20230073777A1, “CYCLIC-AMP RESPONSE ELEMENT BINDING PROTEIN (CBP) AND/OR ADENOVIRAL E1A BINDING PROTEIN OF 300 KDA (P300) DEGRADATION COMPOUNDS AND METHODS OF USE” (CULLGEN (SHANGHAI), INC., priority 2019, published 2023)
“Also recorded” adds a separate entry of the source.

Experiments:
MM.1S = test: Cell viability assay, MM.1S; format: cell-based; conditions: Homo sapiens, MM1.S, Multiple Myeloma
Experimental: (§1) Cells were seeded at a density of 5000 cells per well in 96-well assay plates and treated with test compounds following a 12-point 3-fold serial dilution. Three days later, cell viability was determined using the CellTiter-Glo assay kit according to the manufacturer's instructions. The dose-response curves were determined and IC50 values were calculated using the GraphPad Prism software following a nonlinear regression (least squares fit) method.
(§2) The IC50 value of each compound was determined as described in FIG. 4 and calculated using the GraphPad Prism 5.0 software.

Pfeiffer = test: Cell viability assay, Pfeiffer; format: cell-based; conditions: Homo sapiens, Diffuse large B-cell lymphoma
Experimental: as §1, §2

MM.1R = test: Cell viability assay, MM.1R; format: cell-based; conditions: Multiple Myeloma
Experimental: as §1, §2

WSU-DLCL2 = test: Cell viability assay, WSU-DLCL2; format: cell-based; conditions: Homo sapiens, WSUDLCL2, WSU-DLCL2, Diffuse large B-cell lymphoma
Experimental: as §1, §2

MEG-01 = test: Cell viability assay, MEG-01; format: cell-based; conditions: Homo sapiens, MEG-01, Chronic myeloid leukemia
Experimental: as §1, §2

CBP = target: T1, CBP (Homo sapiens, UniProt Q92793); test: Pharmacodynamic study, CBP in 22RV1 subcutaneous xenograft tumors; format: in vivo, Athymic nude mice; conditions: single dose 40 mg/kg, i.p. or p.o., six hours after administration (FIG. 9)
T1 construct: from tissue; host or cells: 22RV1 subcutaneous xenograft tumours in athymic nude mice
T1 sequence (Q92793 whole entry): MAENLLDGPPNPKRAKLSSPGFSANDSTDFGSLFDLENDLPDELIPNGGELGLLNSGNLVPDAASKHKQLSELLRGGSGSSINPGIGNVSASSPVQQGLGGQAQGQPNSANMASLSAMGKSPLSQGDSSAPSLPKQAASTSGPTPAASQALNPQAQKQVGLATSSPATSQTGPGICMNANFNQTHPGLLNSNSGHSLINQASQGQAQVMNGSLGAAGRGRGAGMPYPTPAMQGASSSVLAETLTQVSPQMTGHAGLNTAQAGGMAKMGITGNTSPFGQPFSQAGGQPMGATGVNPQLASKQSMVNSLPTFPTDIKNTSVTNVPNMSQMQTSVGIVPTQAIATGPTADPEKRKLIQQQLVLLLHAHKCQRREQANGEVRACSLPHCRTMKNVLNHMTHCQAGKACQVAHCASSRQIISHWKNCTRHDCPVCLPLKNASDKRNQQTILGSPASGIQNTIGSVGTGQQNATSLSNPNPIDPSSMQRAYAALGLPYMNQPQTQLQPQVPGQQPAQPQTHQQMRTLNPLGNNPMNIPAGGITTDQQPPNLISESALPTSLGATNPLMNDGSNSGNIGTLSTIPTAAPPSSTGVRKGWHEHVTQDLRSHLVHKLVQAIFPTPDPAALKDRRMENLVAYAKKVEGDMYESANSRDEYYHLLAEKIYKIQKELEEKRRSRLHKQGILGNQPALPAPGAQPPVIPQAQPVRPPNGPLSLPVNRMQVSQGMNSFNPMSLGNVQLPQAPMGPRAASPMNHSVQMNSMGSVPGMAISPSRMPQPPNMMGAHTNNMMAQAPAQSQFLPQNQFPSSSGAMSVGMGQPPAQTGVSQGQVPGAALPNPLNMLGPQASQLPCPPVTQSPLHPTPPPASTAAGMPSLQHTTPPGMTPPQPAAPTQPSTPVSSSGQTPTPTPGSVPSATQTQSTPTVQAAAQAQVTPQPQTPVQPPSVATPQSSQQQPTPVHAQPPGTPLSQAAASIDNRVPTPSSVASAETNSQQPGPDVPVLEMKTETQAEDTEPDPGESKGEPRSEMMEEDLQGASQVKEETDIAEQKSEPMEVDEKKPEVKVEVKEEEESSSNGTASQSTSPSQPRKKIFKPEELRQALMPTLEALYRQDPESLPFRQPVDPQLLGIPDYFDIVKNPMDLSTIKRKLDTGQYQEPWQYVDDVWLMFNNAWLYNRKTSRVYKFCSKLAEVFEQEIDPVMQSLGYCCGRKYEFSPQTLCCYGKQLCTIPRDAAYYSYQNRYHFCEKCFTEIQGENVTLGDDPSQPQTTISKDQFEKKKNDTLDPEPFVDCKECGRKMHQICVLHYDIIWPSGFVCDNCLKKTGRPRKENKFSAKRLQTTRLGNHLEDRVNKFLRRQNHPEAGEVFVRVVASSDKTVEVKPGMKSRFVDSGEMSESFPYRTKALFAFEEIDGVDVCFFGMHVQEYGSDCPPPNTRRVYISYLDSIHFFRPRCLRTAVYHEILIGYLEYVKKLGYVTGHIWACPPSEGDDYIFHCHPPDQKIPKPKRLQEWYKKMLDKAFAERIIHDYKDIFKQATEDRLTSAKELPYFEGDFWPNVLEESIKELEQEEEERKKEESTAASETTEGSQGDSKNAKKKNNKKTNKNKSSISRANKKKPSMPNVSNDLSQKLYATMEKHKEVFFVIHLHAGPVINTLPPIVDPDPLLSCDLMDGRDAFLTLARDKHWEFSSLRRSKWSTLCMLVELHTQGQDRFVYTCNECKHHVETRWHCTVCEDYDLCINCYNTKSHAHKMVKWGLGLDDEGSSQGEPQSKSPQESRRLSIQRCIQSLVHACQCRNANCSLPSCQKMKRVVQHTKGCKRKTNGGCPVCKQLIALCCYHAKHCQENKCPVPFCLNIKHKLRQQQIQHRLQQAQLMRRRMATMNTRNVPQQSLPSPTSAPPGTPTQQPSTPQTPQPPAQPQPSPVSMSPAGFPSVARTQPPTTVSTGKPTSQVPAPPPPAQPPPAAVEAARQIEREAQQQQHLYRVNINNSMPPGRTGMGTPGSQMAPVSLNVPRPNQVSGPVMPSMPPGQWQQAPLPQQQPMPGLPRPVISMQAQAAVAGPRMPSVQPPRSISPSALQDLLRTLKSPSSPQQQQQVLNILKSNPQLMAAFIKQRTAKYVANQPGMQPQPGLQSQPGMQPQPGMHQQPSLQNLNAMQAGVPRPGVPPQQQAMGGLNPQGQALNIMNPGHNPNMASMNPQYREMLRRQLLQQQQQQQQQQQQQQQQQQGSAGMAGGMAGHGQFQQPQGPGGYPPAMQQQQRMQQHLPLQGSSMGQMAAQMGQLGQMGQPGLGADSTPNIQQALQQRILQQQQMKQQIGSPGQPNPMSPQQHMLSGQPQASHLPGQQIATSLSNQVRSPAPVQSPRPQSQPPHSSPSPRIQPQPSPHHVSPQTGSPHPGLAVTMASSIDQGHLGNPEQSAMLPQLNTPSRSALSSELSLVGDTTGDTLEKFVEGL
Experimental: (§3) In addition to cultured cells, athymic nude mice bearing 22RV1 subcutaneous xenograft tumors at the right flank were intraperitoneally or orally treated with 40 mg/kg bivalent compounds. Six hours after drug administration, animals were sacrificed for immunoblotting of P300 and CBP in homogenized xenograft tumor masses. […] Moreover, ICR mice were orally treated with 40 mg/kg bivalent compounds. Six hours after drug administration, animals were sacrificed for immunoblotting of CBP in homogenized lung tissues.
(§4) Athymic nude mice bearing 22RV1 subcutaneous xenograft tumors at the right flank were intraperitoneally or orally treated with selected bivalent compounds at 40 mg/kg. Six hours after drug administration, animals were sacrificed, and xenograft tumors were collected for immunoblotting of P300 and CBP.
(§5) All animal experiments were performed under protocols approved by the Institutional Animal Care and Use Committee (IACUC) of Cullgen. Athymic nude mice (male, 5-weeks old) received 5 million 22RV1 cells subcutaneously inoculated at the right flank site. Twenty days following inoculation, tumors were approximately 500 mm^3 in size. Tumor-bearing mice were treated intraperitoneally or via oral gavage with vehicle or bivalent compounds at indicated doses. 6 hours after drug administration, animals were sacrificed, tumors were resected. Small chunks of tumors were homogenized for immunoblotting of P300/CBP and other proteins as indicated. Alternatively, ICR mice (male, 5-weeks old) were treated via oral gavage with vehicle or bivalent compounds at indicated doses. 6 hours after drug administration, animals were sacrificed, lung tissues were resected. Small chunks of lung tissues were homogenized for immunoblotting of CBP and other proteins as indicated.

P300 [1] = target: T2, P300 (Homo sapiens, UniProt Q09472); test: Pharmacodynamic study, P300 in 22RV1 subcutaneous xenograft tumors; format: in vivo, Athymic nude mice; parameters: from tissue; host or cells: 22RV1 subcutaneous xenograft tumours in athymic nude mice; conditions: single dose 40 mg/kg, i.p. or p.o., six hours after administration (FIG. 9)
T2 sequence (Q09472 whole entry): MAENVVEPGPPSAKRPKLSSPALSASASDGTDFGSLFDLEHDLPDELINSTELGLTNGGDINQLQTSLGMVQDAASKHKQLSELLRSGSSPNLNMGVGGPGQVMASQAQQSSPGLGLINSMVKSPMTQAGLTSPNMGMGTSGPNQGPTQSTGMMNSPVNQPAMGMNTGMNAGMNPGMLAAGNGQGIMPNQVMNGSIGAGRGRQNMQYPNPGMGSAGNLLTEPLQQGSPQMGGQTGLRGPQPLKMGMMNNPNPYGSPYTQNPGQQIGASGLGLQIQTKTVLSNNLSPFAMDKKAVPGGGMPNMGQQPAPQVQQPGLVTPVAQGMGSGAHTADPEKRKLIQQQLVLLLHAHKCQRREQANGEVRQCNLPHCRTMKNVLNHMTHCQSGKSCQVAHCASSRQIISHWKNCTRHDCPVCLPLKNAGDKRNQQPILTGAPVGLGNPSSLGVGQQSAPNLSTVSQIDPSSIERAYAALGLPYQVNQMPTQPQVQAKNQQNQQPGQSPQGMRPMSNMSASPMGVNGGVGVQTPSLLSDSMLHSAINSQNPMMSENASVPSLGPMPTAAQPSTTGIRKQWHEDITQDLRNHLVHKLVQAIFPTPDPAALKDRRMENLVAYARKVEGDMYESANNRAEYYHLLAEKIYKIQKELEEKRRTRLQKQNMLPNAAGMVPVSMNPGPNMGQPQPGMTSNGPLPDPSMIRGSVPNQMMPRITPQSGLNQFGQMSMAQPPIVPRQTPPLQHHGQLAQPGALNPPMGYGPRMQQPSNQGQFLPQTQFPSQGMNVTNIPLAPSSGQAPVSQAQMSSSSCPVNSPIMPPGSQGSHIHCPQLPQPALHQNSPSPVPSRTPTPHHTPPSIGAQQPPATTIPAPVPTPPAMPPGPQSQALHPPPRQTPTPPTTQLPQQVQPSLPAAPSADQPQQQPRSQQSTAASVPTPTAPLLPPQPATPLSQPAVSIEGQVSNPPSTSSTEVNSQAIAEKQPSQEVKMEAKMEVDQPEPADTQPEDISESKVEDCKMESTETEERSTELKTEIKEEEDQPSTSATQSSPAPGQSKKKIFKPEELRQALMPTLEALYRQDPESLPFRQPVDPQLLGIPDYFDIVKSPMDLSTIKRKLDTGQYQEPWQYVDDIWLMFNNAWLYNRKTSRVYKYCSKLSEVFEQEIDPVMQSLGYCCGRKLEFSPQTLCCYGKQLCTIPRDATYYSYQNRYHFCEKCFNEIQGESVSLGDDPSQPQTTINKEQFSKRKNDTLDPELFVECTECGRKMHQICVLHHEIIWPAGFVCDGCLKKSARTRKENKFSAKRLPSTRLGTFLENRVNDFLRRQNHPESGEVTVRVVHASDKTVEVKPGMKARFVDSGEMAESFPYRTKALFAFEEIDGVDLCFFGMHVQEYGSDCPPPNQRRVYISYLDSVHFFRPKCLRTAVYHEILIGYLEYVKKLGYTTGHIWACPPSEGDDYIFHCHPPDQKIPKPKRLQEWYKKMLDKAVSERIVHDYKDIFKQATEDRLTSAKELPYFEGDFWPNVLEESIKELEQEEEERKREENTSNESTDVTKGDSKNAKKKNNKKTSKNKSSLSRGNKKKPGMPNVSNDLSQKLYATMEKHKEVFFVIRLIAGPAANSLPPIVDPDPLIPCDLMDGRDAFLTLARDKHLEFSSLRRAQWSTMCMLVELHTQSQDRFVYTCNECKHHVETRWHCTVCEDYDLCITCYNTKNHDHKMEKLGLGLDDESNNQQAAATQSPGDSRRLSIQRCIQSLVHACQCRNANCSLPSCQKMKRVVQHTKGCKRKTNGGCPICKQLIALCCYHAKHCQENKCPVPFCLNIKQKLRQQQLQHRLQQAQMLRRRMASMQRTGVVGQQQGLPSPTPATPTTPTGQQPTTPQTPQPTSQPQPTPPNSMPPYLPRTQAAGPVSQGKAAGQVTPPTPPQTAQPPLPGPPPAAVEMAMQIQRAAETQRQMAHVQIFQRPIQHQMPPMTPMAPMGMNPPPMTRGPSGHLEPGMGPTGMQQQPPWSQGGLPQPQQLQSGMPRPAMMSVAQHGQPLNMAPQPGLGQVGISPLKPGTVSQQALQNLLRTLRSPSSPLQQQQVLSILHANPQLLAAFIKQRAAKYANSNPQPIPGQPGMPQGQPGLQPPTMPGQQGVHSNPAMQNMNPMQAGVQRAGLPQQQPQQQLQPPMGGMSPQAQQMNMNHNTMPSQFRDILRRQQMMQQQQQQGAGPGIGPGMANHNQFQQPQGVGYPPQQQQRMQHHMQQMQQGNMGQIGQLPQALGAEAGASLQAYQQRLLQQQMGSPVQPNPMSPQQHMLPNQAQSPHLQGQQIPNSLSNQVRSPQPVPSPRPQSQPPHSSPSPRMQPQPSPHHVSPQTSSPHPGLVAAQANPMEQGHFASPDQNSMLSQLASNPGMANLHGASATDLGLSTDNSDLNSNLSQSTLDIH
Experimental: as §3, §4, §5

MCF-7 = test: Cell viability assay, MCF-7; format: cell-based; conditions: Homo sapiens, MCF7, MCF-7, breast carcinoma
Experimental: as §1, §2

HEL = test: Cell viability assay, HEL; format: cell-based; conditions: Homo sapiens, Erythroleukemia
Experimental: as §1, §2

P300 [2] = target: T2, P300; test: Immunoblotting of P300 protein levels in LNCaP or 22RV1 cells; format: cell-based; parameters: LNCaP or 22RV1 cells that express CBP/P300 proteins were treated with GNE-781 or the bivalent compounds; endogenous in cells; host or cells: LNCaP (clone FGC) or 22RV1 cells; conditions: for inhibition at 0.01 µM: percentage of inhibition of p300 at 10 nM (Table 2), read-out: Degradation (10 nM)
Procedure, shortened: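 P300/CBP levels quantified by chemiluminescent immunoblot band densitometry, normalized against tubulin or vinculin loading controls. Lysates came from LNCaP or 22RV1 cells exposed to compounds or DMSO vehicle for indicated times.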

NCI-H929 = test: Cell viability assay, NCI-H929; format: cell-based; conditions: Homo sapiens, NCI-H929, Multiple Myeloma
Experimental: as §1, §2

P300/CBP = test: Immunoblotting of P300/CBP protein levels in LNCaP or 22RV1 cells; format: cell-based; conditions: LNCaP cells, 10 nM single dose (FIG. 8)
Experimental: Specific exemplary bivalent compounds were characterized in LNCaP or 22RV1 cells. LNCaP or 22RV1 cells that express CBP/P300 proteins were treated with GNE-781 or the bivalent compounds disclosed herein (P-001 to P-174) for indicated hours. Cells were collected, lysed and subject to immunoblotting using an antibody specific to P300 or CBP proteins. Tubulin or vinculin was included as the loading control. DMSO was used as the negative control.
Cultured cells or tissue chunks were washed with cold PBS once and lysed in cold RIPA buffer supplemented with protease inhibitors and phosphatase inhibitors (Beyotime Biotechnology). The solutions were then incubated at 4° C. for 30 minutes with gentle agitation to fully lyse cells. Cell lysates were centrifuged at 13,000 rpm for 10 minutes at 4° C. and pellets were discarded. Total protein concentrations in the lysates were determined by BCA assays (Beyotime Biotechnology). Cell lysates were mixed with Laemmli loading buffer to 1× and heated at 99° C. for 5 min. Proteins were resolved on SDS-PAGE and visualized by chemiluminescence. Images were taken by a ChemiDoc MP Imaging system (Bio-Rad). Protein bands were quantitated using the accompanied software provided by Bio-Rad.

NCI-H520 = test: Cell viability assay, NCI-H520; format: cell-based; conditions: Homo sapiens, NCI-H520, Non-small cell lung cancer
Experimental: as §1, §2

VCaP = test: Cell viability assay, VCaP; format: cell-based; conditions: Homo sapiens, Prostate carcinoma
Experimental: as §1, §2

MOLM-13 = test: Cell viability assay, MOLM-13; format: cell-based; conditions: Homo sapiens, MOLM-13, Acute monocytic leukemia
Experimental: as §1, §2

SU-DHL-1 = test: Cell viability assay, SU-DHL-1; format: cell-based; conditions: Homo sapiens, SU-DHL-1, Diffuse large B-cell lymphoma
Experimental: as §1, §2

Kasumi-1 = test: Cell viability assay, Kasumi-1; format: cell-based; conditions: Homo sapiens, Kasumi-1, Acute myeloid leukemia
Experimental: as §1, §2

22Rv1 = test: Cell viability assay, 22Rv1; format: cell-based; conditions: Homo sapiens, 22Rv1, Prostate carcinoma
Experimental: as §1, §2

AMO-1 = test: Cell viability assay, AMO-1; format: cell-based; conditions: Homo sapiens, AMO1, AMO-1, Multiple Myeloma
Experimental: as §1, §2

| Compound | IC50 (MM.1S) | IC50 (Pfeiffer) | IC50 (MM.1R) | IC50 (WSU-DLCL2) | IC50 (MEG-01) | CBP protein levels in 22RV1 xenograft tumors (CBP) | P300 protein levels in 22RV1 xenograft tumors (P300 [1]) | IC50 (MCF-7) | IC50 (HEL) | inhibition at 0.01 µM (P300 [2]) | IC50 (NCI-H929) | degradation of P300/CBP in combination with pomalidomide, MG-132, Bortezomib or MLN4924 (P300/CBP) | IC50 (NCI-H520) | IC50 (VCaP) | IC50 (MOLM-13) | IC50 (SU-DHL-1) | IC50 (Kasumi-1) | IC50 (22Rv1) | IC50 (AMO-1) | P300 protein levels, dependence on interaction with cereblon (P300 [2]; LNCaP or 22RV1 cells, various concentrations (FIG. 7)) |
| --- | --- | --- | --- | --- | --- | --- | --- | --- | --- | --- | --- | --- | --- | --- | --- | --- | --- | --- | --- | --- |
| CNC(=O)N1CCc2c(c(N3CCCc4cc(-c5cnn(C)c5)c(C(F)F)cc43)nn2C2CCN(C(=O)CCCCCCCNc3ccc4c(c3)C(=O)N(C3CCC(=O)NC3=O)C4=O)CC2)C1 (stereo not drawn) [P-007, 3-(7-(difluoromethyl)-6-(1-methyl-1H-pyrazol-4-yl)-3,4-dihydroquinolin-1(2H)-yl)-1-(1-(8-((2-(2,6-dioxopiperidin-3-yl)-1,3-dioxoisoindolin-5-yl)amino)octanoyl)piperidin-4-yl)-N-methyl-1,4,6,7-tetrahydro-5H-pyrazolo[4,3-c]pyridine-5-carboxamide] | 0.7 nM | 2.1 nM | 0.3 nM | 0.4 nM | 7.9 nM | significantly reducing | significantly reducing | 2.2 nM | 16.1 nM | > 80% | 0.9 nM | compromised; also recorded: neutralized | 2.8 nM | 2.1 nM | 7.7 nM | 3.4 nM | 87.8 nM | 3.2 nM | 38.7 nM |  |
| CNC(=O)N1CCc2c(c(N3CCCc4cc(-c5cnn(C)c5)c(C(F)F)cc43)nn2C2CCN(C(=O)CCCCCNc3cccc4c3C(=O)N(C3CCC(=O)NC3=O)C4=O)CC2)C1 (stereo not drawn) [P-034, 3-(7-(difluoromethyl)-6-(1-methyl-1H-pyrazol-4-yl)-3,4-dihydroquinolin-1(2H)-yl)-1-(1-(6-((2-(2,6-dioxopiperidin-3-yl)-1,3-dioxoisoindolin-4-yl)amino)hexanoyl)piperidin-4-yl)-N-methyl-1,4,6,7-tetrahydro-5H-pyrazolo[4,3-c]pyridine-5-carboxamide] | 0.2 nM | 0.7 nM | 0.1 nM | 0.4 nM | 15.3 nM | significantly reducing | significantly reducing | 65.4 nM | 37.8 nM | > 80% | 0.2 nM | compromised; also recorded: neutralized | 2 nM | 3.6 nM | 6.9 nM | 0.8 nM | 1150 nM | 8.2 nM | 141 nM | P300 degradation induced by P-034 |
